Experiment: Dissolution testing, simulated empty stomach (USP 31 NF26 Apparatus 2, 0.1N HCl)
Type: physicochemical
Settings: for HCBT Released / HCBT Released, Percent of Original Dose: 80 mg dose, 0.1N HCl 250 ml 37° C.
Description: The resinate or pure HCBT was weighed to determine the dose to be tested. The resinate or pure HCBT powder was added directly to the vessel for dissolution testing without the use of a capsule or tablet and its associated excipients. The conditions in the first stage to simulate dissolution in an empty stomach were as follows:
The above resinate of the invention having an 11.5% HCBT loading was tested at dosages of 10 mg, 40 mg and 80 mg HCBT. The resinate of the invention having 60.7% HCBT loading was tested at dosages of 10 and 80 mg HCBT. […] A given dose was placed in the dissolution apparatus and stirred for a given length of time. At the end of that time, the quantity of HCBT released was determined by high pressure liquid chromatography.

With `COc1ccc2c3c1O[C@H]1C(=O)CC[C@H]4[C@@H](C2)N(C)CC[C@]314` [Pure HCBT, Hydrocodone bitartrate] the “drug released (FIG. 1)” value (80 mg dosage in powder form, simulated empty stomach) was “released essentially all of the drug”, the “HCBT Released” value (15 min) was 78.8 mg and the “HCBT Released, Percent of Original Dose” value (15 min) was 98.6% of Original Dose. For the same molecule, the “HCBT Released” value (30 min) was 79.2 mg, the “HCBT Released, Percent of Original Dose” value (30 min) was 99.0% of Original Dose and the “HCBT Released” value (45 min) was 79.4 mg. The “HCBT Released, Percent of Original Dose” value (45 min) was 99.2% of Original Dose, the “HCBT Released” value (60 min) was 79.6 mg and the “HCBT Released, Percent of Original Dose” value (60 min) was 99.5% of Original Dose.

Source: patent US9211292B2, “Preventing or reducing drug abuse and overdose events” (ALITAIR PHARMACEUTICALS INC, priority 2011, dated 2015)
